Results reported in patent US4550101A, “Iron complexes of hydroxy pyridones useful for treating iron deficiency anemia” (priority 1982, dated 1985).
Like-named read-outs stand apart in the source and are kept apart here. Blank lines part the entries; values can stand above or below the compound they belong to.

Tests used:
rat jejunal sac = experiment: Iron uptake into the serosal space of the inverted rat jejunal sac
Description: Rats (male Sprague Dawley, 60 g) were killed and the jejunum removed, everted and cut into three segments (4 cm length). The segments were tied at both ends and filled with Krebs Ringer buffer (0.2 ml) and incubated in Krebs Ringer buffer containing ^59 Fe complexes at 37° C. for periods up to 1 hour. The contents of the sac were counted for ^59 Fe and measured spectrophotometrically.

[1] = Partition between n-octanol and aqueous tris hydrochloride (Kpart); type: physicochemical; settings: for Partition Coefficient, Kpart, Iron complex [Fe^III-(compound)3]: 100 µM
Description: Acid washed glassware is used throughout and, following mixing of 5 ml of the 10^-4 M aqueous solution with 5 ml of n-octanol for 1 minute, the aqueous n-octanol mixture is centrifuged at 1,000 g for 30 seconds. The two resulting phases are separated for a concentration determination by spectrophotometry on each.

human erythrocytes [2] = settings: pH 7.4
Description: (§1) Following this period of incubation, an aliquot of the erythrocyte/medium mixture was placed above a layer of silcone oil and the erythrocytes separated by centrifugation through the oil. The ^59 Fe levels associated with the erythrocytes and the incubation medium were then counted.

apotransferrin = experiment: Ability of iron complexes to donate iron to apotransferrin; type: biochemical; settings: within 10 minutes, 37° C., pH 7.4, 10^-4 M complex, 10^-4 M apotransferrin
Description: At 10, 20, 30 and 60 minute intervals 1 ml aliquots were removed from the media and added to a PD10 colum. 0.5 ml fractions were collected directly into scintillation vials for counting. The ^59 Fe associated with both the apotransferrin and the ligand was estimated as a function of time. […] Thus, although both the 3-hydroxypyrid-2-ones and the 3-hydroxypyrid-4-ones are able to denote iron to apotransferrin, the former are the more efficient.

cat intestine [3] = settings: in vivo
Description: (§2) The total ^59 Fe present in the kidneys and urine was then measured in each case.
(§3) As well as the kidneys, various other tissues of the cat which recieved the Fe(III) 1-ethyl-3-hydroxypyrid-2-one were studied to assess the percentage of the original ^59 Fe dose which was present.

[4] = Clearance and tissue distribution of 59Fe after intravenous injection in the cat; type: in vivo
Description: as §3

human erythrocytes [5] = experiment: Accumulation of iron complexes by human erythrocytes; settings: 1 hour, 37° C., pH 7.4, 10^-3 M complex, 5% erythrocyte suspension; mean of at least three determinations
Description: as §1

cat intestine [6] = experiment: In vivo permeability of cat intestine towards iron complexes: 59Fe in blood, kidneys, urine and tissues after administration into the small intestine; settings: for Concentration of [59Fe] in blood: 1 mg iron, pyridone complex with 20-fold excess of free pyridone
Description: as §2, §3

[7] = n-octanol/tris hydrochloride, pH 7.4
[8] = relative to ferric chloride as 1, 37° C., up to 1 hour
[9] = n-octanol / 20 mM tris hydrochloride pH 7.4, 20° C., 10^-4 M, read-out: Partition Coefficient, Kpart, Free Compound (converted)

SMILES: O=C([O-])[C@H](O)[C@@H](O)[C@H](O)[C@H](O)CO.O=C([O-])[C@H](O)[C@@H](O)[C@H](O)[C@H](O)CO.[Fe+2] [Fe^II gluconate]
Relative Iron Uptake (rat jejunal sac): 1.6

SMILES: O=C1O[C@H]([C@@H](O)CO)C(O)=C1O [Fe^III ascorbate, iron (III) ascorbate, reference compound]
logD at 100 µM [1, 7]: -2.82
Relative Iron Uptake (rat jejunal sac; [8]): 0.4

SMILES: CCn1cccc(O)c1=O [1-ethyl-3-hydroxypyrid-2-one]
logD at 100 µM [1, 7]: -0.284

SMILES: Cc1c([O-])c(=O)ccn1C.Cc1c([O-])c(=O)ccn1C.Cc1c([O-])c(=O)ccn1C.[Fe+3] [3:1 iron (III) complex of 3-hydroxy-1,2-dimethylpyrid-4-one]
Partition Coefficient, Kpart, Iron complex [Fe^III-(compound)3] [1, 7]: 0.05
Amount of complex entering erythrocytes (human erythrocytes [2]): 25 n.mole

SMILES: [Cl][Fe]([Cl])[Cl] [FeCl3, ferric chloride]
Relative Iron Uptake (rat jejunal sac): 1

SMILES: CCCCn1ccc(=O)c(O)c1C [1-butyl-3-hydroxy-2-methylpyrid-4-one, 1-Butyl-3-hydroxy-2-methylpyrid-4-one]
logD at 100 µM [1, 9]: 0.724

SMILES: Cn1cccc(O)c1=O [3-hydroxy-1-methylpyrid-2-one]
logD at 100 µM [1, 7]: -0.357

SMILES: CCn1ccc(=O)c([O-])c1C.CCn1ccc(=O)c([O-])c1C.CCn1ccc(=O)c([O-])c1C.[Fe+3] [3:1 iron (III) complex of 1-ethyl-3-hydroxy-2-methylpyrid-4-one]
Partition Coefficient, Kpart, Iron complex [Fe^III-(compound)3] [1, 7]: 0.03
iron removed from the iron complex by apotransferrin (apotransferrin): 55%
Amount of complex entering erythrocytes (human erythrocytes [2]): 20 n.mole

SMILES: O=C([O-])CN(CCN(CC(=O)[O-])CC(=O)[O-])CC(=O)[O-].[Fe+3] [Fe^III EDTA, iron (III) EDTA]
percentage of the total dose in the urine (cat intestine [3]; cat, 4 h): 21%
clearance into the urine (cat intestine [3]): cleared rapidly into the urine

SMILES: CC(C)n1cccc(O)c1=O [3-hydroxy-1-(1'-methylethyl)-pyrid-2-one, 3-hydroxy-1-(1'-methylethyl)pyrid-2-one]
logD at 100 µM [1, 7]: 0.491

SMILES: CCCCn1ccc(=O)c([O-])c1C.CCCCn1ccc(=O)c([O-])c1C.CCCCn1ccc(=O)c([O-])c1C.[Fe+3] [3:1 iron (III) complex of 1-butyl-3-hydroxy-2-methylpyrid-4-one]
Partition Coefficient, Kpart, Iron complex [Fe^III-(compound)3] [1, 7]: 7.70
Amount of complex entering erythrocytes (human erythrocytes [2]): 1630 n.mole

SMILES: CCn1cccc([O-])c1=O.CCn1cccc([O-])c1=O.CCn1cccc([O-])c1=O.[Fe+3] [iron complex of 1-ethyl-3-hydroxypyrid-2-one]
Partition Coefficient, Kpart, Iron complex [Fe^III-(compound)3] ([1]; n-octanol / 20 mM tris hydrochloride pH 7.4, 20° C., 10^-4 M): 1.06
dose appearing in the urine [4]: less than 1%
half life of clearance from the circulation [4]: 45 min
Percentage of original 59Fe dose, Blood ([4]; after 4 hours): 7%
Percentage of original 59Fe dose, Heart ([4]; after 4 hours): 1.1%
Percentage of original 59Fe dose, Kidneys ([4]; after 4 hours): 1%
Percentage of original 59Fe dose, Liver ([4]; after 4 hours): 5.3%
Percentage of original 59Fe dose, Skeletal Muscle ([4]; after 4 hours): 0.5%
Percentage of original 59Fe dose, Spleen ([4]; after 4 hours): 0.7%
Percentage of original 59Fe dose, Urine ([4]; after 4 hours): 0.5%
Percentage of original 59Fe dose, Reticuloendothelial System (Bone Marrow) ([4]; after 4 hours, estimated): ~80%
iron removed from the iron complex by apotransferrin (apotransferrin): over 90%
Relative Iron Uptake (rat jejunal sac; [8]): 37
Amount of complex entering erythrocytes (human erythrocytes [5]): 250 n.mole
Concentration of [59Fe] in blood (cat intestine [6]; 20 minutes after administration into small intestine): 200 c.p.m.
Concentration of [59Fe] in blood (cat intestine [6]; 40 minutes after administration into small intestine): 475 c.p.m.
Concentration of [59Fe] in blood (cat intestine [6]; 60 minutes after administration into small intestine): 643 c.p.m.
Concentration of [59Fe] in blood (cat intestine [6]; 80 minutes after administration into small intestine): 661 c.p.m.
Concentration of [59Fe] in blood (cat intestine [6]; 100 minutes after administration into small intestine): 784 c.p.m.
Concentration of [59Fe] in blood (cat intestine [6]; 120 minutes after administration into small intestine): 870 c.p.m.
Concentration of [59Fe] in blood (cat intestine [6]; 140 minutes after administration into small intestine): 834 c.p.m.
Concentration of [59Fe] in blood (cat intestine [6]; 160 minutes after administration into small intestine): 750 c.p.m.
Concentration of [59Fe] in blood (cat intestine [6]; 180 minutes after administration into small intestine): 900 c.p.m.
clearance into the urine (cat intestine [6]; 4 hours, into small intestine): very slow
percentage of the total dose in the kidneys (cat intestine [6]; 4 hours, into small intestine): 0.05%
percentage of the total dose in the urine (cat intestine [6]; 4 hours, into small intestine): no more than 0.01%
Concentration of [59Fe] in blood (cat intestine [6]; 240 minutes after administration into small intestine): 948 c.p.m.
59Fe in the sternum (cat intestine [6]; confirms reticuloendothelial system (bone marrow)): high levels of ^59 Fe in the sternum
distribution of the iron in the body (cat intestine [6]; intrajejunal): widely distributed throughout the body
Percentage of original 59Fe dose, Blood (cat intestine [6]; intrajejunal, after 4 hours): 3%
Percentage of original 59Fe dose, Heart (cat intestine [6]; intrajejunal, after 4 hours): 1.5%
Percentage of original 59Fe dose, Intestinal Tissue (cat intestine [6]; intrajejunal, after 4 hours): 30%
Percentage of original 59Fe dose, Kidneys (cat intestine [6]; intrajejunal, after 4 hours): 0.05%
Percentage of original 59Fe dose, Liver (cat intestine [6]; intrajejunal, after 4 hours): 1.6%
Percentage of original 59Fe dose, Skeletal Muscle (cat intestine [6]; intrajejunal, after 4 hours): 0.8%
Percentage of original 59Fe dose, Spleen (cat intestine [6]; intrajejunal, after 4 hours): 0.1%
Percentage of original 59Fe dose, Urine (cat intestine [6]; intrajejunal, after 4 hours): 0.01%
Percentage of original 59Fe dose, Reticuloendothelial System (Bone Marrow) (cat intestine [6]; intrajejunal, after 4 hours, estimated): ~60%

SMILES: Cc1c(O)c(=O)ccn1C [3-hydroxy-1,2-dimethylpyrid-4-one]
logD at 100 µM [1, 7]: -0.678

SMILES: CCn1ccc(=O)c(O)c1C [1-ethyl-3-hydroxy-2-methylpyrid-4-one, 1-Ethyl-3-hydroxy-2-methylpyrid-4-one]
logD at 100 µM [1, 9]: -0.398

Second part, the compound after the results:

logD at 100 µM [1, 7]: -0.108
SMILES: CCCn1cccc(O)c1=O [3-hydroxy-1-propylpyrid-2-one]

Partition Coefficient, Kpart, Iron complex [Fe^III-(compound)3] [1, 7]: 0.20
Amount of complex entering erythrocytes (human erythrocytes [2]): 22 n.mole
SMILES: Cc1c([O-])c(=O)ccn1C(C)C.Cc1c([O-])c(=O)ccn1C(C)C.Cc1c([O-])c(=O)ccn1C(C)C.[Fe+3] [3:1 iron (III) complex of 3-hydroxy-1-(1'-methylethyl)-2-methylpyrid-4-one]

Partition Coefficient, Kpart, Iron complex [Fe^III-(compound)3] [1, 7]: 13.50
Amount of complex entering erythrocytes (human erythrocytes [2]): 770 n.mole
SMILES: CC(C)n1cccc([O-])c1=O.CC(C)n1cccc([O-])c1=O.CC(C)n1cccc([O-])c1=O.[Fe+3] [3:1 iron (III) complex of 3-hydroxy-1-(1'-methylethyl)pyrid-2-one]

Partition Coefficient, Kpart, Iron complex [Fe^III-(compound)3] [1, 7]: 0.10
Amount of complex entering erythrocytes (human erythrocytes [2]): 60 n.mole
SMILES: Cn1cccc([O-])c1=O.Cn1cccc([O-])c1=O.Cn1cccc([O-])c1=O.[Fe+3] [3:1 iron (III) complex of 3-hydroxy-1-methylpyrid-2-one]

logD at 100 µM [1, 9]: -0.0223
SMILES: Cc1c(O)c(=O)ccn1C(C)C [3-Hydroxy-2-methyl-1-(1'-methylethyl)pyrid-4-one]

Amount of complex entering erythrocytes (human erythrocytes [2]): 53 n.mole
SMILES: CCCn1ccc(=O)c([O-])c1C.CCCn1ccc(=O)c([O-])c1C.CCCn1ccc(=O)c([O-])c1C.[Fe+3] [3:1 iron (III) complex of 3-hydroxy-2-methyl-1-propylpyrid-4-one]

Partition Coefficient, Kpart, Iron complex [Fe^III-(compound)3] [1, 7]: 6.20
Amount of complex entering erythrocytes (human erythrocytes [2]): 710 n.mole
SMILES: CCCn1cccc([O-])c1=O.CCCn1cccc([O-])c1=O.CCCn1cccc([O-])c1=O.[Fe+3] [3:1 iron (III) complex of 3-hydroxy-1-propylpyrid-2-one]
